Drawing on patent US20110028509A1, “Sulfonamides” (MERCK SERONO SA, priority 2008, published 2011), this text covers IC50 for 48 molecules.

Structures are written as SMILES.

For this experiment, the target named is T1, CXCR3 (Homo sapiens, UniProt P49682).
T1 sequence (P49682 1-368): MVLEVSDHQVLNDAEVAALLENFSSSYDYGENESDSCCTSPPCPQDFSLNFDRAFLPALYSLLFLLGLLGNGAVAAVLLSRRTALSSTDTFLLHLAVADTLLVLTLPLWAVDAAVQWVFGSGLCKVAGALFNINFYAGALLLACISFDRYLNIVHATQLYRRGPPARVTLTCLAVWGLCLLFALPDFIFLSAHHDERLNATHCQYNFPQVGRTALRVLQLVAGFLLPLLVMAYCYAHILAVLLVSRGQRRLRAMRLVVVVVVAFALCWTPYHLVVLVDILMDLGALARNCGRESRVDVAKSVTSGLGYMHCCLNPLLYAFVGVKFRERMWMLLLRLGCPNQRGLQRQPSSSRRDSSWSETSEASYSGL
The experiment is described as follows: CXCR3 Ca2+ mobilization (FLIPR), stable hCXCR3-CHO cell line, I-TAC stimulated. It is filed as cell-based. Set-up: host or cells: CHO cells stably expressing hCXCR3. As to conditions: hCXCR3-CHO cells, I-TAC 100 nM stimulated Ca2+ response; read-out: Ca-ITAC. On the procedure:
Human chinese hamster ovary (CHO) cell line stably expressing hCXCR3 was purchased from Euroscreen (Belgium) and culture in HAM's F12 (Invitrogen) containing 10% heat inactivated fetal calf serum (Cancerra, Australia), 50 units ml−1 penicillin, 50 μml−1 streptomycin, (Invitrogen, USA) and 400 μg/ml geneticin (G418) (Calbiochem, San Diego), according to the manufacturer.
CXCR3Ca^2+ mobilization was measured using a stable hCXCR3—CHO cell line and a microtiter-plate based assay using FLIPR^TETRA™ (Molecular Devices). In more detail, cells were harvested and plated into black 384-well plates (Becton-Dickinson) at a density of 15 000 cells per well and grown in the incubator for 18 hours. On the next day the media was aspirated and replaced with the cell loading buffer (HBSS—(Invitrogen) based buffer containing calcium indicator and signal enhancer from a commercial Ca2+ assay kit (Becton Dickinson). The plates were incubated for 60 minutes in the incubator, the test compounds were added and the plates equilibrated for 20 minutes at room temperature.
Plates were placed into FLIPR and the CXCR3 agonist (I-TAC, 100 nM) stimulated fluorescence change was quantitated. The activity of CXCR3 antagonists was determined as percent of the CXCR3 ligand I-TAC in the absence of the test compounds (=100% activity).
In general terms: A change in cytosolic calcium serves as a functional read-out for many receptors and channels.
Regarding `COC(C(=O)Nc1ccc(CN(Cc2ccccn2)S(=O)(=O)c2ccc(Cl)cc2)cc1)c1ccccc1` (stereo not drawn) [Example 182], the IC50 came out at 40 nM.

As to `O=C(NC(C(=O)O)c1ccccc1)c1ccc(CN(Cc2ccccn2)S(=O)(=O)c2ccc(Cl)cc2)cc1` (stereo not drawn) [Example 151], the IC50 is 150 nM.

On to `CC(CCc1ccccc1)N(Cc1ccc(-c2nnn[nH]2)cc1)S(=O)(=O)c1ccc(Cl)cc1` (stereo not drawn) [Example 224], for which the IC50 was 1500 nM.

`O=[N+]([O-])c1ccc(S(=O)(=O)N(Cc2ccc(-c3nnn[nH]3)cc2)Cc2ccccn2)cc1` [Example 140]: the IC50 stood at 2000 nM.

For the molecule `CCOc1ccc(S(=O)(=O)N(Cc2ccc(C(=O)N[C@H]3[C@@H]4CN(C(=O)c5ccc(OC(F)(F)F)cc5)C[C@@H]43)cc2)Cc2ccccn2)cc1` [Example 117, 4-{[(4-Ethoxy-benzenesulfonyl)-pyridin-2-ylmethyl-amino]-methyl}-N-[(1S,5R,6S)-3-(4-trifluoromethoxy-benzoyl)-3-aza-bicyclo[3.1.0]hex-6-yl]-benzamide], the IC50 stood at 800 nM.

Take `O=C(N[C@H](C(=O)O)c1ccccc1)c1ccc(CN(Cc2ccccn2)S(=O)(=O)c2ccc(Cl)cc2)cc1` [Example 152]: the IC50 worked out at 750 nM.

For the molecule `O=C(O)c1ccc(CN(Cc2cnccn2)S(=O)(=O)c2ccc(Cl)cc2)cc1` [Example 319], the IC50 is 20000 nM.

For the molecule `COc1ccc(S(=O)(=O)N(Cc2ccccc2)Cc2ccc(C(=O)NCc3ccccc3)cc2)cc1` [Example 31], the IC50 was 1900 nM.

Take `O=S(=O)(c1ccc(Cl)cc1)N(Cc1ccc(-c2nnn[nH]2)cc1)Cc1ccccc1-n1cccn1` [Example 280]: the IC50 was determined as 20000 nM.

Turning to `O=S(=O)(c1ccc(Cl)cc1)N(Cc1ccccc1)Cc1cccc(-c2nnn[nH]2)c1` [Example 234], the IC50 was 1500 nM.

Take `O=C(NCC1CC1)c1ccc(CN(Cc2ccccn2)S(=O)(=O)c2ccc(Cl)c(Cl)c2)cc1` [Example 45]: the IC50 came to 13000 nM.

`Cc1cc(S(=O)(=O)N(Cc2ccc(-c3nnn[nH]3)cc2)Cc2ccccn2)c(F)cc1Cl` [Example 79]: the IC50 is 4000 nM.

As to `O=S(=O)(c1ccc(Cl)cc1)N(CCc1ccccc1)Cc1ccc(-c2nnn[nH]2)cc1` [Example 204], the IC50 worked out at 2010 nM.

For the molecule `CCOC(=O)c1ccc(CN(Cc2ccccn2)S(=O)(=O)c2ccc(OCC)cc2)cc1` [Example 191], the IC50 worked out at 13000 nM.

In the case of `CCOc1ccc(S(=O)(=O)N(Cc2ccc(C(=O)N[C@H]3[C@@H]4CN(C(C)=O)C[C@@H]43)cc2)Cc2cccnc2)cc1` [Example 108], the IC50 was determined as 1800 nM.

Regarding `N#Cc1ccc(CN(C(=O)c2ccccn2)S(=O)(=O)c2ccc(Cl)cc2)cc1` [Example 279, 4-Chloro-N-(4-cyano-benzyl)-N-(pyridine-2-carbonyl)-benzenesulfonamide], the IC50 was 10000 nM.

For the molecule `CCOc1ccc(S(=O)(=O)N(Cc2ccc(C(=O)NCCc3ccc(S(N)(=O)=O)cc3)cc2)Cc2cccnc2)cc1` [Example 95], the IC50 is 2000 nM.

For `Cc1ccc(S(=O)(=O)N(Cc2ccc(-c3nnn[nH]3)cc2)Cc2ccccn2)cc1` [Example 139], the IC50 came out at 2000 nM.

For the molecule `O=C(NC1(c2ccccc2)CC1)c1ccc(CN(Cc2cnccn2)S(=O)(=O)c2ccc(Cl)cc2)cc1` [Example 187], the IC50 was found to be 4000 nM.

Take `CN(C)c1ccc(CNC(=O)c2ccc(CN(Cc3ccccn3)S(=O)(=O)c3ccc(C#N)cc3)cc2)cn1` [Example 148]: the IC50 was found to be 3000 nM.

Regarding `N#Cc1ccc(CN(Cc2ccccn2)S(=O)(=O)c2ccccc2[N+](=O)[O-])cc1` [Example 173], the IC50 stood at 400 nM.

Consider `COc1cc(OC)nc(CN(Cc2ccc(C(=O)O)cc2)S(=O)(=O)c2ccc(Cl)cc2)n1` [Example 328], for which the IC50 worked out at 13000 nM.

Take `CS(=O)(=O)NC(=O)c1ccc(CN(Cc2ccccn2)S(=O)(=O)c2ccc(Cl)cc2)cc1` [Example 48, N-(methanesulfonyl)-4{[[(4-chlorophenyl)sulfonyl](pyridin-2-ylmethyl)amino]methyl}benzamide]: the IC50 is 8300 nM.

On to `N#Cc1ccc(C(=O)N(Cc2ccccn2)S(=O)(=O)c2ccc(Cl)cc2)cc1` [Example 281, 4-Chloro-N-(4-cyano-benzoyl)-N-pyridin-2-ylmethyl-benzenesulfonamide], for which the IC50 came out at 7000 nM.

Regarding `N#Cc1ccc(S(=O)(=O)N(Cc2ccc(C(=O)NC3(c4cccc(C#N)c4)CC3)cc2)Cc2cccnc2)cc1` [Example 111], the IC50 was 1500 nM.

`COC(=O)C(Cc1ccc(O)cc1)NC(=O)c1ccc(CN(Cc2ccccn2)S(=O)(=O)c2ccc(Cl)cc2)cc1` (stereo not drawn) [Example 345]: the IC50 turned out to be 18000 nM.

As for `N#Cc1ccc(CN(Cc2ccccn2)S(=O)(=O)c2ccccc2Cl)cc1` [Example 186], the IC50 came out at 5000 nM.

With `O=S(=O)(c1ccc(Cl)cc1)N(Cc1ccccc1)Cc1ccccc1-c1nnn[nH]1` [Example 229], the IC50 is 1600 nM.

Regarding `O=S(=O)(c1cccc(Oc2ccccc2)c1)N(Cc1ccc(-c2nnn[nH]2)cc1)Cc1ccccn1` [Example 165], the IC50 worked out at 1100 nM.

As to `Cc1cccc(S(=O)(=O)N(Cc2ccc(-c3nnn[nH]3)cc2)Cc2ccccn2)c1` [Example 311], the IC50 is 10000 nM.

Regarding `CC(C)(Cc1ccccc1)N(Cc1ccc(-c2nnn[nH]2)cc1)S(=O)(=O)c1ccc(Cl)cc1` [Example 236], the IC50 was 3000 nM.

`O=S(=O)(c1ccc(Cl)cc1)N(CCCc1ccccc1)Cc1ccc(-c2nnn[nH]2)cc1` [Example 221]: the IC50 is 1700 nM.

Turning to `CCOC(=O)c1ccc(CN(Cc2cccnc2)S(=O)(=O)c2ccc(OCC)cc2)cc1` [Example 155], the IC50 is 2000 nM.

With `O=S(=O)(c1ccc(Cl)cc1)N(Cc1cccc(-c2nnn[nH]2)c1)Cc1ccccn1` [Example 228], the IC50 came out at 2800 nM.

For the molecule `O=C(Nc1ccc(CN(Cc2ccccn2)S(=O)(=O)c2ccc(Cl)cc2)cc1)C(O)c1cccc(Cl)c1` (stereo not drawn) [Example 184], the IC50 amounted to 1000 nM.

Turning to `CCOc1ccc(S(=O)(=O)N(Cc2ccc(C(=O)N[C@H]3[C@@H]4CN(C(=O)c5ccc(OC(F)(F)F)cc5)C[C@@H]43)cc2)Cc2cccnc2)cc1` [Example 116], the IC50 is 2000 nM.

On to `CCOc1ccc(S(=O)(=O)N(Cc2ccc(N3CCOCC3)cc2)Cc2ccccn2)cc1` [Example 269], for which the IC50 is 9000 nM.

In the case of `O=C(O)c1ccc(CNC(=O)c2ccc(CN(Cc3ccccn3)S(=O)(=O)c3ccc(Cl)cc3)cc2)cc1` [Example 133], the IC50 was 2000 nM.

Consider `CCOc1ccc(S(=O)(=O)N(Cc2ccc(C(=O)NCC(C)c3ccccc3)cc2)Cc2ccccn2)cc1` (stereo not drawn) [Example 86], for which the IC50 stood at 1700 nM.

In the case of `N#Cc1cccc(CN(Cc2ccccc2)S(=O)(=O)c2ccc(Cl)cc2)c1` [Example 230], the IC50 turned out to be 1200 nM.

`CCS(=O)(=O)NC(=O)c1ccc(CN(Cc2ccccn2)S(=O)(=O)c2ccc(Cl)cc2)cc1` [Example 55, N-(ethanesulfonyl)-4-{[[(4-chlorophenyl)sulfonyl](pyridin-2-yl-methyl)amino]methyl}benzamide]: the IC50 was 11000 nM.

For the molecule `COc1ccc(CN(Cc2ccc(C(=O)NCc3ccccc3)cc2)S(=O)(=O)c2ccc(Cl)cc2)cc1` [Example 35, 4-{[(4-Chloro-benzenesulfonyl)-(4-methoxybenzyl)-amino]-methyl}-N-phenyl methyl benzamide], the IC50 came to 6000 nM.

As for `O=C(NS(=O)(=O)C1CC1)c1ccc(CN(Cc2ccccn2)S(=O)(=O)c2ccc(Cl)cc2)cc1` [Example 49, N-(cyclopropanesulfonyl)-4-{[[(4-chlorophenyl)sulfonyl](pyridin-2-ylmethyl)amino]methyl}benzamide], the IC50 stood at 5600 nM.

With `O=C(NC1(c2ccccc2)CC1)c1ccc(CN(Cc2ccc3cccnc3n2)S(=O)(=O)c2ccc(Cl)cc2)cc1` [Example 330], the IC50 was 10000 nM.

With `N#Cc1ccc(CCN(Cc2ccccn2)S(=O)(=O)c2ccc(Cl)cc2)cc1` [Example 286, 4-Chloro-N-[2-(4-cyano-phenyl)-ethyl]-N-pyridin-2-ylmethyl-benzenesulfonamide], the IC50 is 4000 nM.

On to `O=C(N[C@@H](Cc1ccc(O)cc1)C(=O)O)c1ccc(CN(Cc2ccccn2)S(=O)(=O)c2ccc(Cl)cc2)cc1` [Example 154], for which the IC50 amounted to 4000 nM.

In the case of `COc1cccc(CN(Cc2ccc(C(=O)NCc3ccccc3)cc2)S(=O)(=O)c2ccc(Cl)cc2)c1` [Example 38, 4-{[(4-Chloro-benzenesulfonyl)-(3-methoxybenzyl)-amino]-methyl}-N-phenyl methyl benzamide], the IC50 is 10000 nM.

Regarding `N#Cc1ccc(CN(C2CCc3cc(Cl)ccc32)S(=O)(=O)c2ccc(Cl)cc2)cc1` (stereo not drawn) [Example 299], the IC50 stood at 5500 nM.
